Test results from US6190699A, “Method of incorporating proteins or peptides into a matrix and administration thereof through mucosa” (NZL Corporation, priority 1998, dated 2001).
Read-outs that look alike come from different tables or passages of the source.

Assays:
[1] = test system: diabetic rabbits; test: Blood glucose levels in alloxan-diabetic rabbits after intravenous or intranasal insulin; format: in vivo, Male New Zealand White rabbits; settings: intravenous injection, 0.3 and 0.4 U/kg insulin, -30 to 300 minutes (FIG. 1)
[2] = test system: rats; settings: cited from earlier work
[3] = Serum insulin levels (radio immune assay) in diabetic rabbits; settings: intravenous injection, 0.3 and 0.4 U/kg insulin, diabetic rabbits (FIG. 2)
Procedure: The animals used in this study were Male New Zealand White rabbits weighing approximately 2.5 kg. (Charles River Labs, Amherst, Mass.). The animals were housed individually in cages and given standard animal chow and water. All animals were treated according to the Guiding Principles for Laboratory Animal Care of the American Physiologic Society.
The animals were made diabetic by intravenously injecting 80 mg/kg of Alloxan suspended in isotonic saline solution into the animal. The animals' blood glucose levels were monitored every two to three hours for the first three days. When glucose levels reached 500 mg/dl during the first three days, insulin (0.15 U/kg) was administered.
Prior to the experiment, the animals were fasted for 16 hours. The animals were then anesthetized by intravenously administering 30 mg/kg sodium pentobarbital. Forty minutes following the initial dose of pentobarbital, a second dose (6 mg/kg) was administered to the animals. […]
The animals were placed into groups of 3 to 7 animals for each experiment. […] Blood glucose levels and serum insulin levels were measured for each experiment. […]
Following the blood glucose analysis, serum samples were obtained by centrifuging the blood samples collected at 3000 rpm for 10 minutes. […] Serum insulin levels were determined using radio immune assay kits. […]

In the case of insulin, the blood glucose levels [1] is given as “showed a fall in blood glucose levels”, the “increase in concentration of insulin required intranasally to reach plasma glucose levels similar to parenteral administration” value ([2]; intranasal vs parenteral) is given as 10 fold and the plasma glucose levels ([2]; intravenous administration) is given as “decreased significantly”. The plasma glucose levels ([2]; oral administration) was “only slightly decreased” and the serum insulin levels [3] was “serum insulin levels increased as the blood glucose levels fell”.
